Data as given in patent publication US9776962B2, “Aromatic compounds with GPR40 agonistic activity” (TAKEDA PHARMACEUTICAL COMPANY LIMITED, priority 2013, dated 2017).

Biological target: T1, human GPR40 (Homo sapiens, UniProt O14842)
T1 construct: expressed in transfected cells
Assay: Evaluation of human GPR40 agonist activity with increase in intracellular Ca2+ concentration as an index (FLIPR)
Assay type: cell-based
Conditions: test compound 1 μM; CHO(dhfr−) cells stably expressing human GPR40; 100% = 10 μM compound of Example 153, 0% = DMSO
How it was run: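 CHO(dhfr−) cells stably expressing full-length human GPR40 were loaded with Ca2+ probe for 1 h at room temperature, then given test compound at 1 μM final. Fluorescence was followed on FLIPR, with activity scaled to a reference agonist at 10 μM (100%) and DMSO (0%).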

T1 sequence (O14842 whole entry): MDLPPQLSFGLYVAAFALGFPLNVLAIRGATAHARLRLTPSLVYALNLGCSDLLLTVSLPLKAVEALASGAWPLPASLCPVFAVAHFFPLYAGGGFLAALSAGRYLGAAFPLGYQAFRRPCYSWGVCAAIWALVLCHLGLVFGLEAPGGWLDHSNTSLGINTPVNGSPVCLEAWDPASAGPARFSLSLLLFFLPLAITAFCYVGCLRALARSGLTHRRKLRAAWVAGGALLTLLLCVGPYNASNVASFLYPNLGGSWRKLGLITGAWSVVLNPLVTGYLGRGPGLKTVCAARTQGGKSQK

COc1ccc(C(=O)N(CC(F)F)c2nccc(C)n2)c(N2CCC(COc3cc(C(CC(=O)O)C4CC4)ccn3)CC2)c1 (centres unmarked) [Example 172, 3-cyclopropyl-3-(2-((1-(2-((2,2-difluoroethyl)(4-methylpyrimidin-2-yl)carbamoyl)-5-methoxyphenyl)piperidin-4-yl)methoxy)pyridin-4-yl)propanoic acid]
activation at 1 µM: 97%

COc1ccc(C(=O)N(CC(C)(C)C)c2nccc(C)n2)c(N2CCC(COc3cc(C(CC(=O)O)C4CC4)ccn3)CC2)c1 (centres unmarked) [Example 173, 3-cyclopropyl-3-(2-((1-(2-((2,2-dimethylpropyl)(4-methylpyrimidin-2-yl)carbamoyl)-5-methoxyphenyl)piperidin-4-yl)methoxy)pyridin-4-yl)propanoic acid]
activation at 1 µM: 103%

COc1ccc(C(=O)N(CC(C)(C)C)c2nc(C)cc(C)n2)c(N2CCC(COc3cc(C(CC(=O)O)C4CC4)ccn3)CC2)c1 (centres unmarked) [Example 174, 3-cyclopropyl-3-(2-((1-(2-((2,2-dimethylpropyl)(4,6-dimethylpyrimidin-2-yl)carbamoyl)-5-methoxyphenyl)piperidin-4-yl)methoxy)pyridin-4-yl)propanoic acid]
activation at 1 µM: 104%

COc1ccc(C(=O)N(CC(F)(F)F)c2cncc(C)c2)c(N2CCC(COc3cc(C(CC(=O)O)C4CC4)ccn3)CC2)c1 (centres unmarked) [Example 175, 3-cyclopropyl-3-(2-((1-(5-methoxy-2-((5-methylpyridin-3-yl)(2,2,2-trifluoroethyl)carbamoyl)phenyl)piperidin-4-yl)methoxy)pyridin-4-yl)propanoic acid]
activation at 1 µM: 90%

COc1ccc(C(=O)N(CC(C)(C)C)c2cnccn2)c(N2CCC(COc3cc(C(CC(=O)O)C4CC4)ccn3)CC2)c1 (centres unmarked) [Example 178, 3-cyclopropyl-3-(2-((1-(2-((2,2-dimethylpropyl)(pyrazin-2-yl)carbamoyl)-5-methoxyphenyl)piperidin-4-yl)methoxy)pyridin-4-yl)propanoic acid]
activation at 1 µM: 103%

COc1ccc(C(=O)N(CC(C)(C)C)c2cccnn2)c(N2CCC(COc3cc(C(CC(=O)O)C4CC4)ccn3)CC2)c1 (centres unmarked) [Example 179, 3-cyclopropyl-3-(2-((1-(2-((2,2-dimethylpropyl)(pyridazin-3-yl)carbamoyl)-5-methoxyphenyl)piperidin-4-yl)methoxy)pyridin-4-yl)propanoic acid]
activation at 1 µM: 84%

COc1ccc(C(=O)N(CC(C)(C)C)c2cncc(Cl)n2)c(N2CCC(COc3cc(C(CC(=O)O)C4CC4)ccn3)CC2)c1 (centres unmarked) [Example 180, 3-(2-((1-(2-((6-chloropyrazin-2-yl)(2,2-dimethylpropyl)carbamoyl)-5-methoxyphenyl)piperidin-4-yl)methoxy)pyridin-4-yl)-3-cyclopropylpropanoic acid]
activation at 1 µM: 105%

COc1ccc(C(=O)N(Cc2ccccn2)CC(C)(C)C)c(N2CCC(COc3cc(C(CC(=O)O)C4CC4)ccn3)CC2)c1 (centres unmarked) [Example 181, 3-cyclopropyl-3-(2-((1-(2-((2,2-dimethylpropyl)(pyridin-2-ylmethyl)carbamoyl)-5-methoxyphenyl)piperidin-4-yl)methoxy)pyridin-4-yl)propanoic acid]
activation at 1 µM: 91%

COc1ccc(C(=O)N(CC(C)(C)OC)c2ccccc2)c(N2CCC(COc3cc(C(CC(=O)O)C4CC4)ccn3)CC2)c1 (centres unmarked) [Example 188, 3-cyclopropyl-3-(2-((1-(5-methoxy-2-((2-methoxy-2-methylpropyl)(phenyl)carbamoyl)phenyl)piperidin-4-yl)methoxy)pyridin-4-yl)propanoic acid]
activation at 1 µM: 95%

COc1ccc(C(=O)N(CC2(F)CC2)c2ccccc2)c(N2CCC(COc3cc(C(CC(=O)O)C4CC4)ccn3)CC2)c1 (centres unmarked) [Example 189, 3-cyclopropyl-3-(2-((1-(2-(((1-fluorocyclopropyl)methyl)(phenyl)carbamoyl)-5-methoxyphenyl)piperidin-4-yl)methoxy)pyridin-4-yl)propanoic acid]
activation at 1 µM: 89%

COc1ccc(C(=O)N(c2ccccn2)C2CCN(Cc3ccccc3)CC2)c(N2CCC(COc3cc(C(CC(=O)O)C4CC4)ccn3)CC2)c1 (centres unmarked) [Example 190, 3-(2-((1-(2-((1-benzylpiperidin-4-yl)(pyridin-2-yl)carbamoyl)-5-methoxyphenyl)piperidin-4-yl)methoxy)pyridin-4-yl)-3-cyclopropylpropanoic acid]
Activity (human GPR40 agonist activity): 66%

COc1ccc(C(=O)N(c2ccccn2)C2CCN(CC(F)(F)F)CC2)c(N2CCC(COc3cc(C(CC(=O)O)C4CC4)ccn3)CC2)c1 (centres unmarked) [Example 191, 3-cyclopropyl-3-(2-((1-(5-methoxy-2-(pyridin-2-yl(1-(2,2,2-trifluoroethyl)piperidin-4-yl)carbamoyl)phenyl)piperidin-4-yl)methoxy)pyridin-4-yl)propanoic acid]
Activity (human GPR40 agonist activity): 86%

COc1ccc(C(=O)N(CC(C)(C)C)C2CC2)c(N2CCC(COc3cc(C(CC(=O)O)C4CC4)ccn3)CC2)c1 (centres unmarked) [Example 192, 3-cyclopropyl-3-(2-((1-(2-(cyclopropyl(2,2-dimethylpropyl)carbamoyl)-5-methoxyphenyl)piperidin-4-yl)methoxy)pyridin-4-yl)propanoic acid]
activation at 1 µM: 90%

COc1ccc(C(=O)NC2CCN(CC(F)(F)F)CC2)c(N2CCC(COc3cc(C(CC(=O)O)C4CC4)ccn3)CC2)c1 (centres unmarked) [Example 193, 3-cyclopropyl-3-(2-((1-(5-methoxy-2-((1-(2,2,2-trifluoroethyl)piperidin-4-yl)carbamoyl)phenyl)piperidin-4-yl)methoxy)pyridin-4-yl)propanoic acid]
activation at 1 µM: 39%

COc1ccc(C(=O)N(C)C2CCN(CC(F)(F)F)CC2)c(N2CCC(COc3cc(C(CC(=O)O)C4CC4)ccn3)CC2)c1 (centres unmarked) [Example 194, 3-cyclopropyl-3-(2-((1-(5-methoxy-2-(methyl(1-(2,2,2-trifluoroethyl)piperidin-4-yl)carbamoyl)phenyl)piperidin-4-yl)methoxy)pyridin-4-yl)propanoic acid]
activation at 1 µM: 77%

COc1ccc(C(=O)N(CC2CCCCC2)c2ccccn2)c(N2CCC(COc3cc(C(CC(=O)O)C4CC4)ccn3)CC2)c1 (centres unmarked) [Example 195, 3-(2-((1-(2-((cyclohexylmethyl)(pyridin-2-yl)carbamoyl)-5-methoxyphenyl)piperidin-4-yl)methoxy)pyridin-4-yl)-3-cyclopropylpropanoic acid]
activation at 1 µM: 98%

COc1ccc(C(=O)N(CC2CCOCC2)c2ccccn2)c(N2CCC(COc3cc(C(CC(=O)O)C4CC4)ccn3)CC2)c1 (centres unmarked) [Example 196, 3-cyclopropyl-3-(2-((1-(5-methoxy-2-(pyridin-2-yl(tetrahydro-2H-pyran-4-ylmethyl)carbamoyl)phenyl)piperidin-4-yl)methoxy)pyridin-4-yl)propanoic acid]
activation at 1 µM: 81%

COc1ccc(C(=O)N(Cc2ccccc2)c2ccccn2)c(N2CCC(COc3cc(C(CC(=O)O)C4CC4)ccn3)CC2)c1 (centres unmarked) [Example 197, 3-(2-((1-(2-(benzyl(pyridin-2-yl)carbamoyl)-5-methoxyphenyl)piperidin-4-yl)methoxy)pyridin-4-yl)-3-cyclopropylpropanoic acid]
activation at 1 µM: 103%

COc1ccc(C(=O)N(CC(C)(C)C)C2CCCC2)c(N2CCC(COc3cc(C(CC(=O)O)C4CC4)ccn3)CC2)c1 (centres unmarked) [Example 198, 3-(2-((1-(2-(cyclopentyl(2,2-dimethylpropyl)carbamoyl)-5-methoxyphenyl)piperidin-4-yl)methoxy)pyridin-4-yl)-3-cyclopropylpropanoic acid]
activation at 1 µM: 94%

COc1ccc(C(=O)N2CCOc3ccccc32)c(N2CCC(COc3cc(C(CC(=O)O)C4CC4)ccn3)CC2)c1 (centres unmarked) [Example 199, 3-cyclopropyl-3-(2-((1-(2-(2,3-dihydro-4H-1,4-benzoxazin-4-ylcarbonyl)-5-methoxyphenyl)piperidin-4-yl)methoxy)pyridin-4-yl)propanoic acid]
activation at 1 µM: 93%

COc1ccc(C(=O)N2CCOCC2c2ccccc2)c(N2CCC(COc3cc(C(CC(=O)O)C4CC4)ccn3)CC2)c1 (centres unmarked) [Example 200, 3-cyclopropyl-3-(2-((1-(5-methoxy-2-((3-phenylmorpholin-4-yl)carbonyl)phenyl)piperidin-4-yl)methoxy)pyridin-4-yl)propanoic acid]
activation at 1 µM: 89%

COc1ccc(C(=O)N2CCOCC2Cc2ccccc2)c(N2CCC(COc3cc(C(CC(=O)O)C4CC4)ccn3)CC2)c1 (centres unmarked) [Example 201, 3-(2-((1-(2-((3-benzylmorpholin-4-yl)carbonyl)-5-methoxyphenyl)piperidin-4-yl)methoxy)pyridin-4-yl)-3-cyclopropylpropanoic acid]
activation at 1 µM: 92%

COc1ccc(C(=O)N2CC(F)(F)OC(F)(F)C2)c(N2CCC(COc3cc(C(CC(=O)O)C4CC4)ccn3)CC2)c1 (centres unmarked) [Example 202, 3-cyclopropyl-3-(2-((1-(5-methoxy-2-((2,2,6,6-tetrafluoromorpholin-4-yl)carbonyl)phenyl)piperidin-4-yl)methoxy)pyridin-4-yl)propanoic acid]
activation at 1 µM: 102%

COc1ccc(C(=O)N(CC(C)(C)C)c2cc(C)nc(C)n2)c(N2CCC(COc3cc(C(CC(=O)O)C4CC4)ccn3)CC2)c1 (centres unmarked) [Example 228, 3-cyclopropyl-3-(2-((1-(2-((2,2-dimethylpropyl) (2,6-dimethylpyrimidin-4-yl)carbamoyl)-5-methoxyphenyl)piperidin-4-yl)methoxy)pyridin-4-yl)propanoic acid]
activation at 1 µM: 99%

COc1ccc(C(=O)N(CC(C)(C)C)c2ccnc(C)n2)c(N2CCC(COc3cc(C(CC(=O)O)C4CC4)ccn3)CC2)c1 (centres unmarked) [Example 229, 3-cyclopropyl-3-(2-((1-(2-((2,2-dimethylpropyl) (2-methylpyrimidin-4-yl)carbamoyl)-5-methoxyphenyl)piperidin-4-yl)methoxy)pyridin-4-yl)propanoic acid]
activation at 1 µM: 101%

COc1ccc(C(=O)N(CC(C)(C)C)c2cc(C)ncn2)c(N2CCC(COc3cc(C(CC(=O)O)C4CC4)ccn3)CC2)c1 (centres unmarked) [Example 230, 3-cyclopropyl-3-(2-((1-(2-((2,2-dimethylpropyl) (6-methylpyrimidin-4-yl)carbamoyl)-5-methoxyphenyl)piperidin-4-yl)methoxy)pyridin-4-yl)propanoic acid]
activation at 1 µM: 98%
